Assay results taken from patent US20260130395A1, “Water Dispersible Botanical Compositions” (Aquila Black Limited, priority 2021, published 2026).

Test: Stability of cannabinoid compounds and Vitamin E components in Beverage 2 (AB Red) by LCMSMS
Type: physicochemical

SMILES: CCCCCc1cc(O)c2c(c1)OC1(C)CCC3C1C2C3(C)C (centres unmarked) [CBL, cannabicyclol]
- Stability of Plant-Derived Cannabinoid Compounds in AB Red (stored at 8° C., 0 days): 0.510 µg/mL
- Stability of Plant-Derived Cannabinoid Compounds in AB Red (stored at 8° C., 1 days): 0.512 µg/mL
- Stability of Plant-Derived Cannabinoid Compounds in AB Red (stored at 8° C., 2 days): 0.508 µg/mL
- Stability of Plant-Derived Cannabinoid Compounds in AB Red (stored at 8° C., 3 days): 0.499 µg/mL
- Stability of Plant-Derived Cannabinoid Compounds in AB Red (stored at 8° C., 5 days): 0.501 µg/mL
- Stability of Plant-Derived Cannabinoid Compounds in AB Red (stored at 8° C., 8 days): 0.496 µg/mL
- Stability of Plant-Derived Cannabinoid Compounds in AB Red (stored at 8° C., 9 days): 0.496 µg/mL
- Stability of Plant-Derived Cannabinoid Compounds in AB Red (stored at 8° C., 10 days): 0.505 µg/mL
- Stability of Plant-Derived Cannabinoid Compounds in AB Red (stored at 8° C., 11 days): 0.501 µg/mL
- Stability of Plant-Derived Cannabinoid Compounds in AB Red (stored at 8° C., 12 days): 0.499 µg/mL
- Stability of Plant-Derived Cannabinoid Compounds in AB Red (stored at 8° C., 15 days): 0.510 µg/mL
- Stability of Plant-Derived Cannabinoid Compounds in AB Red (stored at 8° C., 16 days): 0.502 µg/mL
- Stability of Plant-Derived Cannabinoid Compounds in AB Red (stored at 8° C., 17 days): 0.514 µg/mL
- Stability of Plant-Derived Cannabinoid Compounds in AB Red (stored at 8° C., 18 days): 0.513 µg/mL
- Stability of Plant-Derived Cannabinoid Compounds in AB Red (stored at 8° C., 19 days): 0.510 µg/mL
- Stability of Plant-Derived Cannabinoid Compounds in AB Red (stored at 8° C., 22 days): 0.495 µg/mL
- Stability of Plant-Derived Cannabinoid Compounds in AB Red (stored at 8° C., 23 days): 0.502 µg/mL
- Stability of Plant-Derived Cannabinoid Compounds in AB Red (stored at 8° C., 24 days): 0.508 µg/mL
- Stability of Plant-Derived Cannabinoid Compounds in AB Red (stored at 8° C., 25 days): 0.510 µg/mL
- Stability of Plant-Derived Cannabinoid Compounds in AB Red (stored at 8° C., 26 days): 0.502 µg/mL
- Stability of Plant-Derived Cannabinoid Compounds in AB Red (stored at 8° C., 29 days): 0.511 µg/mL
- Stability of Plant-Derived Cannabinoid Compounds in AB Red (stored at 8° C., 30 days): 0.511 µg/mL
- Stability of Plant-Derived Cannabinoid Compounds in AB Red (stored at 8° C., 60 days): 0.491 µg/mL
- Stability of Plant-Derived Cannabinoid Compounds in AB Red (stored at 8° C., 90 days): 0.501 µg/mL
- Stability of Plant-Derived Cannabinoid Compounds in AB Red (stored at 8° C., 120 days): 0.488 µg/mL
- Stability of Plant-Derived Cannabinoid Compounds in AB Red (stored at 8° C., 150 days): 0.501 µg/mL
- Stability of Plant-Derived Cannabinoid Compounds in AB Red (stored at 8° C., 180 days): 0.506 µg/mL
- Stability of Plant-Derived Cannabinoid Compounds in AB Red (stored at 8° C., 210 days): 0.490 µg/mL
- Stability of Plant-Derived Cannabinoid Compounds in AB Red (stored at 8° C., 240 days): 0.490 µg/mL
- Stability of Plant-Derived Cannabinoid Compounds in AB Red (stored at 8° C., 270 days): 0.504 µg/mL
- Stability of Plant-Derived Cannabinoid Compounds in AB Red (stored at 8° C., 300 days): 0.489 µg/mL
- Stability of Plant-Derived Cannabinoid Compounds in AB Red (stored at 8° C., 330 days): 0.505 µg/mL
- Stability of Plant-Derived Cannabinoid Compounds in AB Red (stored at 8° C., 360 days): 0.495 µg/mL
- Stability of Plant-Derived Cannabinoid Compounds in AB Red (stored at 8° C., 390 days): 0.491 µg/mL
- Stability of Plant-Derived Cannabinoid Compounds in AB Red (stored at 8° C., 420 days): 0.494 µg/mL
- Stability of Plant-Derived Cannabinoid Compounds in AB Red (stored at 8° C., 450 days): 0.492 µg/mL
- Stability of Plant-Derived Cannabinoid Compounds in AB Red (stored at 8° C., 480 days): 0.487 µg/mL
- Stability of Plant-Derived Cannabinoid Compounds in AB Red (stored at 8° C., 510 days): 0.468 µg/mL
- Stability of Plant-Derived Cannabinoid Compounds in AB Red (stored at 8° C., 540 days): 0.470 µg/mL
- Stability of Plant-Derived Cannabinoid Compounds in AB Red (stored at 8° C., 570 days): 0.469 µg/mL
- Stability of Plant-Derived Cannabinoid Compounds in AB Red (stored at 21-25° C., 0 days): 0.51 µg/mL
- Stability of Plant-Derived Cannabinoid Compounds in AB Red (stored at 21-25° C., 1 days): 0.50 µg/mL
- Stability of Plant-Derived Cannabinoid Compounds in AB Red (stored at 21-25° C., 2 days): 0.50 µg/mL
- Stability of Plant-Derived Cannabinoid Compounds in AB Red (stored at 21-25° C., 3 days): 0.50 µg/mL
- Stability of Plant-Derived Cannabinoid Compounds in AB Red (stored at 21-25° C., 5 days): 0.51 µg/mL
- Stability of Plant-Derived Cannabinoid Compounds in AB Red (stored at 21-25° C., 8 days): 0.50 µg/mL
- Stability of Plant-Derived Cannabinoid Compounds in AB Red (stored at 21-25° C., 9 days): 0.51 µg/mL
- Stability of Plant-Derived Cannabinoid Compounds in AB Red (stored at 21-25° C., 10 days): 0.50 µg/mL
- Stability of Plant-Derived Cannabinoid Compounds in AB Red (stored at 21-25° C., 11 days): 0.50 µg/mL
- Stability of Plant-Derived Cannabinoid Compounds in AB Red (stored at 21-25° C., 12 days): 0.50 µg/mL
- Stability of Plant-Derived Cannabinoid Compounds in AB Red (stored at 21-25° C., 15 days): 0.50 µg/mL
- Stability of Plant-Derived Cannabinoid Compounds in AB Red (stored at 21-25° C., 16 days): 0.51 µg/mL
- Stability of Plant-Derived Cannabinoid Compounds in AB Red (stored at 21-25° C., 17 days): 0.51 µg/mL
- Stability of Plant-Derived Cannabinoid Compounds in AB Red (stored at 21-25° C., 18 days): 0.50 µg/mL
- Stability of Plant-Derived Cannabinoid Compounds in AB Red (stored at 21-25° C., 19 days): 0.49 µg/mL
- Stability of Plant-Derived Cannabinoid Compounds in AB Red (stored at 21-25° C., 22 days): 0.49 µg/mL
- Stability of Plant-Derived Cannabinoid Compounds in AB Red (stored at 21-25° C., 23 days): 0.51 µg/mL
- Stability of Plant-Derived Cannabinoid Compounds in AB Red (stored at 21-25° C., 24 days): 0.50 µg/mL
- Stability of Plant-Derived Cannabinoid Compounds in AB Red (stored at 21-25° C., 25 days): 0.51 µg/mL
- Stability of Plant-Derived Cannabinoid Compounds in AB Red (stored at 21-25° C., 26 days): 0.51 µg/mL
- Stability of Plant-Derived Cannabinoid Compounds in AB Red (stored at 21-25° C., 29 days): 0.49 µg/mL
- Stability of Plant-Derived Cannabinoid Compounds in AB Red (stored at 21-25° C., 30 days): 0.51 µg/mL
- Stability of Plant-Derived Cannabinoid Compounds in AB Red (stored at 21-25° C., 60 days): 0.50 µg/mL
- Stability of Plant-Derived Cannabinoid Compounds in AB Red (stored at 21-25° C., 90 days): 0.49 µg/mL
- Stability of Plant-Derived Cannabinoid Compounds in AB Red (stored at 21-25° C., 120 days): 0.50 µg/mL
- Stability of Plant-Derived Cannabinoid Compounds in AB Red (stored at 21-25° C., 150 days): 0.49 µg/mL
- Stability of Plant-Derived Cannabinoid Compounds in AB Red (stored at 21-25° C., 180 days): 0.50 µg/mL
- Stability of Plant-Derived Cannabinoid Compounds in AB Red (stored at 21-25° C., 210 days): 0.49 µg/mL
- Stability of Plant-Derived Cannabinoid Compounds in AB Red (stored at 21-25° C., 240 days): 0.49 µg/mL
- Stability of Plant-Derived Cannabinoid Compounds in AB Red (stored at 21-25° C., 270 days): 0.49 µg/mL
- Stability of Plant-Derived Cannabinoid Compounds in AB Red (stored at 21-25° C., 300 days): 0.50 µg/mL
- Stability of Plant-Derived Cannabinoid Compounds in AB Red (stored at 21-25° C., 330 days): 0.50 µg/mL
- Stability of Plant-Derived Cannabinoid Compounds in AB Red (stored at 21-25° C., 360 days): 0.49 µg/mL
- Stability of Plant-Derived Cannabinoid Compounds in AB Red (stored at 21-25° C., 390 days): 0.49 µg/mL
- Stability of Plant-Derived Cannabinoid Compounds in AB Red (stored at 21-25° C., 420 days): 0.48 µg/mL
- Stability of Plant-Derived Cannabinoid Compounds in AB Red (stored at 21-25° C., 450 days): 0.49 µg/mL
- Stability of Plant-Derived Cannabinoid Compounds in AB Red (stored at 21-25° C., 480 days): 0.48 µg/mL
- Stability of Plant-Derived Cannabinoid Compounds in AB Red (stored at 21-25° C., 510 days): 0.47 µg/mL
- Stability of Plant-Derived Cannabinoid Compounds in AB Red (stored at 21-25° C., 540 days): 0.47 µg/mL
- Stability of Plant-Derived Cannabinoid Compounds in AB Red (stored at 21-25° C., 570 days): 0.47 µg/mL
